What was measured:
Assay type in all cases: in vivo
[1] = system: spring barley, HORVS Montoya; test: Tank-mix; post-emergence: crop damage by herbicide with/without safener mefenpyr-diethyl; conditions: for HER effect + SAF / Reduction [%] / Reduction [Difference]: HER 48 g a.i./ha + mefenpyr-diethyl 100 g a.i./ha; for HER effect: herbicide alone 48 g a.i./ha
Method in brief: (§1)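 Visual percent crop damage (0–100 relative to untreated plants) assessed 1–3 weeks post-application. Plants in sandy loam were sprayed at the 1–3-leaf stage with herbicide with or without safener at several rates, water volume 300 l/ha.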

[2] = system: spring barley, HORVS Montoya; test: Treatment 1 day before: safener applied one day before herbicide, crop damage; conditions: for HER effect + SAF / Reduction [%] / Reduction [Difference]: mefenpyr-diethyl 50 g a.i./ha 1 day before
From the text: (§2) Seeds of crops (spring wheat, TRZAS; spring barley, HORVS; maize, ZEAMA) were placed in sandy loam soil in pots of a diameter of 7-8 cm, covered with soil, and cultivated in a greenhouse under good growth conditions until plants were at the 1-3 leaf stage (BBCH 11-13). For split safener and herbicide treatment, first the safener was applied followed by the herbicide treatment on the following day. The safener and herbicides were formulated as WP and sprayed onto the green parts of the plants as an aqueous suspension at an equivalent water application rate of 300 l/ha, with addition of wetting agent and adjuvants (e.g. Mero, 1.5 l/ha; ammonium sulphate, 2 kg/ha). An equivalent set of plants was treated with the herbicides but without the prior safener treatment.
(§3) After application, the test plants were kept in the greenhouse under good growth conditions. 10 and 21 days after treatment (DAT) with the herbicide, % crop damage observed on the treated plants was scored visually in comparison to control plants that had not received any safener or herbicide treatment.

[3] = system: spring wheat, TRZAS Triso; test: as above; conditions: 21 DAT; for HER effect + SAF / Reduction [%] / Reduction [Difference]: mefenpyr-diethyl 50 g a.i./ha 1 day before
From the text: as §2, §3

[4] = system: spring barley, HORVS Montoya; test: Seed treatment with safener; post-emergence herbicide, crop damage; conditions: 21 DAT; for HER effect + SAF / Reduction [%] / Reduction [Difference]: mefenpyr-diethyl 0.5 g a.i./kg seed
Method in brief: (§4)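 Crop injury was rated visually in % at 10 and 21 days after post-emergence spraying at the 2-leaf stage. The herbicide was a WP in 300 l/ha water plus 1 l/ha MERO. Plants grew from seed either safener-coated at stated g a.i./kg rates via a milk-diluted slurry, or untreated.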

[5] = system: spring wheat, TRZAS Triso; test: Tank-mix; post-emergence: crop damage by herbicide with/without safener mefenpyr-diethyl; conditions: 21 DAT
Method in brief: as §1

[6] = system: spring wheat, TRZAS Triso; test: Seed treatment with safener; post-emergence herbicide, crop damage; conditions: 21 DAT; for HER effect + SAF [%] (crop damage) / Reduction [%] / Reduction [Difference]: mefenpyr-diethyl 0.5 g a.i./kg seed; for HER effect [%] (crop damage, herbicide without safener): no safener
Method in brief: as §4

[7] = HER 12 g a.i./ha post-emergence
[8] = HER 48 g a.i./ha post-emergence
[9] = herbicide alone 48 g a.i./ha post-emergence
[10] = HER 4 g a.i./ha + mefenpyr-diethyl 50 g a.i./ha
[11] = HER 16 g a.i./ha + mefenpyr-diethyl 100 g a.i./ha

CCOC(=O)C1C=CC(NC(=O)C2(C(F)(F)F)CC(c3cc(OC)cc(OC)c3)=NO2)C1 (mixture of isomers) [Example 1.12]
HER effect + SAF ([1]; 10 DAT): 0% | Reduction [%] ([1]; 10 DAT): 100% | Reduction [Difference] ([1]; 10 DAT): 60 | HER effect ([1]; 10 DAT): 60% | HER effect + SAF ([2]; HER 50 g a.i./ha, 10 DAT): 20% | Reduction [%] ([2]; HER 50 g a.i./ha, 10 DAT): 64% | Reduction [Difference] ([2]; HER 50 g a.i./ha, 10 DAT): 35 | HER effect + SAF ([2]; HER 100 g a.i./ha, 21 DAT): 50% | Reduction [%] ([2]; HER 100 g a.i./ha, 21 DAT): 29% | Reduction [Difference] ([2]; HER 100 g a.i./ha, 21 DAT): 20 | HER effect ([2]; herbicide alone 50 g a.i./ha, 10 DAT): 55% | HER effect ([2]; herbicide alone 100 g a.i./ha, 21 DAT): 70% | HER effect + SAF ([3]; HER 200 g a.i./ha): 20% | Reduction [%] ([3]; HER 200 g a.i./ha): 50% | Reduction [Difference] ([3]; HER 200 g a.i./ha): 20 | HER effect ([3]; herbicide alone 200 g a.i./ha): 40% | HER effect + SAF [4, 7]: 0% | Reduction [%] [4, 7]: 100% | Reduction [Difference] [4, 7]: 20 | HER effect + SAF [4, 8]: 20% | Reduction [%] [4, 8]: 60% | Reduction [Difference] [4, 8]: 30 | HER effect ([4]; herbicide alone 12 g a.i./ha post-emergence): 20% | HER effect [4, 9]: 50%

CC1(C(=O)NC2C=CC(C(=O)OCCCl)C2)CC(c2cc(F)cc(F)c2)=NO1 (mixture of isomers) [Example 1.47]
HER effect + SAF ([1]; 21 DAT): 60% | Reduction [%] ([1]; 21 DAT): 29% | Reduction [Difference] ([1]; 21 DAT): 25 | HER effect ([1]; 21 DAT): 85% | HER effect + SAF [5, 10]: 10% | Reduction [%] [5, 10]: 67% | Reduction [Difference] [5, 10]: 20 | HER effect + SAF [5, 11]: 20% | Reduction [%] [5, 11]: 75% | Reduction [Difference] [5, 11]: 60 | HER effect ([5]; herbicide alone 4 g a.i./ha): 30% | HER effect ([5]; herbicide alone 16 g a.i./ha): 80% | HER effect + SAF ([2]; HER 25 g a.i./ha, 21 DAT): 40% | Reduction [%] ([2]; HER 25 g a.i./ha, 21 DAT): 33% | Reduction [Difference] ([2]; HER 25 g a.i./ha, 21 DAT): 20 | HER effect ([2]; herbicide alone 25 g a.i./ha, 21 DAT): 60% | HER effect + SAF ([3]; HER 25 g a.i./ha): 35% | Reduction [%] ([3]; HER 25 g a.i./ha): 53% | Reduction [Difference] ([3]; HER 25 g a.i./ha): 40 | HER effect + SAF ([3]; HER 50 g a.i./ha): 60% | Reduction [%] ([3]; HER 50 g a.i./ha): 25% | Reduction [Difference] ([3]; HER 50 g a.i./ha): 20 | HER effect ([3]; herbicide alone 25 g a.i./ha): 75% | HER effect ([3]; herbicide alone 50 g a.i./ha): 80% | HER effect + SAF [4, 8]: 20% | Reduction [%] [4, 8]: 76% | Reduction [Difference] [4, 8]: 65 | HER effect [4, 9]: 85% | HER effect + SAF [%] (crop damage) ([6]; HER dose 4 g a.i./ha): 0% | Reduction [%] ([6]; HER dose 4 g a.i./ha): 100% | Reduction [Difference] ([6]; HER dose 4 g a.i./ha): 30 | HER effect [%] (crop damage, herbicide without safener) ([6]; HER dose 4 g a.i./ha): 30% | HER effect + SAF [%] (crop damage) ([6]; HER dose 16 g a.i./ha): 10% | Reduction [%] ([6]; HER dose 16 g a.i./ha): 88% | Reduction [Difference] ([6]; HER dose 16 g a.i./ha): 70 | HER effect [%] (crop damage, herbicide without safener) ([6]; HER dose 16 g a.i./ha): 80%

— patent publication US20230200390A1, “SELECTIVE HERBICIDES BASED ON SUBSTITUTED ISOXAZOLIN CARBOXAMIDES AND MEFENPYR-DIETHYL” (BAYER AKTIENGESELLSCHAFT, priority 2020, published 2023)
